Measured values as given in publication PMC6271227, “Biopharmaceutical Profiling of New Antitumor Pyrazole Derivatives” (Molecules, 2014).

Columns and labels:
[1] = Analysis by the general solubility equation (GSE): logP and melting point; format: physicochemical; conditions: Mp >200 °C, moderate lipophilicity
Text: The general solubility equation (GSE) developed by Jain et al. provides a quantitative relationship between the three parameters: log Sw = 0.5 − 0.01(Mp − 25) − log P(1)
Starting from the general solubility equation, the poorly soluble drugs were sub-classified by the group of Bergström et al. in two types of molecules: “grease ball” and “brick dust” molecules. […] These compounds cannot form bonds with water molecules, and therefore their solubility is limited by the solvation process. By contrast, “brick dust” molecules are usually compounds with rather rigid and flat molecules with a high melting point (>190 °C) and moderate lipophilicity. Their solubility is being solid-state-limited being mainly restricted by the inability of the compound to dissociate from the crystal lattice and can generally be improved by different methods involving a disruption of the stable crystal lattice.

[2] = system: NCI 60 cancer lines; design: method as in PMID 20728965; conditions: cited from earlier work
[3] = the 43 lines with logCI50 under −4

Row | type of poorly soluble molecule (grease ball / brick dust) [1] | Structure (SMILES) | number of the NCI 60 cancer lines with logCI50 under −4 [2] | logCI50 average [2, 3] | logCI50 values (range) [2, 3]
1 | brick dust | Cc1cc(NC(=S)NC(=O)c2ccc(Cl)cc2)n[nH]1 [BC2] |  |  | 
2 | brick dust | Cc1ccc(C(=O)NC(=S)Nc2cc(C)nn2-c2ccccc2)cc1 [BM5] |  |  | 

Second part, the compound before the results:

Row | Structure (SMILES) | type of poorly soluble molecule (grease ball / brick dust) [1] | number of the NCI 60 cancer lines with logCI50 under −4 [2] | logCI50 average [2, 3] | logCI50 values (range) [2, 3]
3 | Cc1ccc(C(=O)NC(=S)Nc2cc(C)[nH]n2)cc1 [BM2] | brick dust |  |  | 
4 | Cc1cc(NC(=S)NC(=O)c2ccccc2)n[nH]1 [BT2] | brick dust |  |  | 
5 | O=C(NC(=S)Nc1cc(-c2ccc(Br)cc2)n[nH]1)c1ccccc1 [N-benzoyl-N'-[3-(4-bromophenyl)-1H-pyrazol-5-yl]-thiourea] |  | 43 | −5.02 | −4.12 to −5.75
